Experiment [1] relates to PE062 primary cells. The experiment in a line: Cell viability IC50 (CCK-8), primary cells PE062 from small cell lung cancer pleural effusion. The conditions noted are these: PE062, CCK-8. Format: cell-based. How it is done:
(§1) (1) The pleural effusion was poured into a 15 mL or 50 mL of sterilized centrifuge tube for centrifugation. Centrifugation conditions: 800 to 1000 rpm, 5 min.
(§2) (2) The precipitate was resuspended and washed for 2 to 3 times with PBS.
(§3) (3) The cell precipitate was resuspended with complete culture medium (α-MEM medium containing 10% fetal bovine serum and 2% penicillin-streptomycin), and the flocculent matter in the pleural effusion was removed using a sterilized cell sieve.
(§4) (4) The red blood cells in the pleural effusion were removed with lymphocyte separation fluid, and the tumor cells and lymphocyte components were collected. The number of tumor cells was observed under a microscope, and the cells were inoculated.
(§5) (5) After 24 hours, the supernatant was discarded, and fresh culture medium was added for further culture.
(§6) (6) The cell growth status was observed, and it was determined based on the cell status whether the medium was required to be continuously changed to remove blood cells. When the cells grew to a density of 80% to 90%, the cells were preserved.
(§7) (1) Primary cells from lung cancer pleural effusion within 5 generations were cultured to the logarithmic growth phase. […] After centrifugation at room temperature, the supernatant was discarded, and the cell precipitate was resuspended with fresh complete culture medium. After counting, the cells were placed at room temperature for later use. The cells were inoculated into a 384-well plate at a density of 2000 cells/well with a volume of 40 μl/well. The wells at the outermost circle of the plate were not inoculated with cells, and instead, added with sterile water to reduce evaporation of the culture medium.
(§8) (2) After overnight culture of the cells, the medium was discarded, and a fresh medium containing different concentrations of compounds was added at 200 μl/well. The dilution method of the compound was as follows: first the compound with the highest concentration of 10 μM was prepared, and then the compound was diluted for 3 times in sequence. […] At the same time, a blank control group was set up, in which only an equal volume of culture medium was added without adding cells. Five replicate wells were set up for each group. The cells were placed in the incubator for further culture.
(§9) (3) After 72 hours, 8 μl of CCK-8 solution, which was double-diluted with 10 mM PBS, was added to each well, and the cells were shaken and placed in an incubator at 37° C. for further culture for 2 hours.
(§10) (4) The light absorbance value at 450 nm was read using a microplate reader, and the IC50 was calculated according to the absorbance value. The calculation method was the same as above.
(§11) (1) Sample information: PE039, PE052, and PE062 were all primary cell samples from pleural effusion of patients with small cell lung cancer, and LT015 was a primary cell sample from bronchoscopic biopsy of a patient with small cell lung cancer.
(§12) (2) CCK-8 detection was used to detect the IC50 values of different medicaments (compounds).

Experiment [2] has as its system LT015 primary cells. Briefly: Cell viability IC50 (CCK-8), primary cells LT015 from small cell lung cancer bronchoscopic biopsy. Format: cell-based. The following applies: LT015, CCK-8. The procedure:
(1) The tissue blocks obtained from the tumor patients were transferred from the preservation solution to the pre-cooled HBSS buffer containing antibiotics, and the tissue blocks were washed for three times with the pre-cooled HBSS buffer.
(2) Tissue was sheared on ice with sterile surgical instruments until no obvious tissue blocks are visible to the naked eye, the tissue fluid was collected into a 15 ml centrifuge tube, and this process takes about 5 to 10 minutes.
(3) Digestive enzymes (collagenase I, collagenase IV and neutral protease being mixed in a ratio of 1:1:1, a concentration of stock solution was 10 mg/ml, diluted with PBS buffer or HBSS buffer, and the use concentration was 1 mg/ml) were added to the centrifuge tube, and after mixing well by pipetting, the centrifuge tube was placed in a 37° C. constant temperature incubator for 1 to 2 hours.
(4) High-glucose medium was added to the centrifuge tube to stop digestion. After mixing well, the cell precipitate was collected by centrifugation, and resuspended with MBM medium (Advanced DMEM-F12+20 ng/ml bFGF+50 ng/ml EGF+1% ITS-X+2% B27+10 μMY-27632+1% PS). The cell suspension was placed in a Matrigel-coated 24-well plate and cultured for 5 to 7 days. When the cell density in the well plate reaches 80-90%, the cells were sub-cultured into a 6 cm cell culture dish, and when they grew to a density of 80% to 90%, the cells were cryopreserved for preservation.
(1) Primary cells from lung cancer pleural effusion within 5 generations were cultured to the logarithmic growth phase. When the confluence reached about 90%, the cells were digested with 0.25% trypsin, and complete culture medium was added to collect the cells. After centrifugation at room temperature, the supernatant was discarded, and the cell precipitate was resuspended with fresh complete culture medium. After counting, the cells were placed at room temperature for later use. The cells were inoculated into a 384-well plate at a density of 2000 cells/well with a volume of 40 μl/well. The wells at the outermost circle of the plate were not inoculated with cells, and instead, added with sterile water to reduce evaporation of the culture medium.
as §8, §9, §10, §11, §12

In experiment [3] the test system is PE052 primary cells. The experiment in a line: Cell viability IC50 (CCK-8), primary cells PE052 from small cell lung cancer pleural effusion. The conditions noted are these: PE052, CCK-8. Format: cell-based. The procedure: as §1, §2, §3, §4, §5, §6, §7, §8, §9, §10, §11, §12
Experiment [4] deals with NCI-H1975 cells. The experiment in a line: Cell viability IC50 (MTT), Gefitinib-resistant NCI-H1975 cells.
Protocol: (§15) 1% sodium pyruvate was additionally added when culturing NCI-H1975 cells. All the cells were cultured in a constant temperature incubator containing 5% CO2 at 37° C.
(§16) (1) The cells were cultured to the logarithmic growth phase. […] After centrifugation at room temperature, the supernatant was discarded, and the cell precipitate was resuspended with fresh complete medium. After counting, the cells were placed at room temperature for later use.
(§17) (2) The cells were inoculated into a 96-well plate at a density of 4,000 cells/well with a volume of 100 μl/well. The wells at the outermost circle of the plate were not inoculated with cells, and instead, added with sterile water to reduce evaporation of the culture medium.
(§18) (3) After overnight culture of the cells, the medium was discarded, and a fresh medium containing different concentrations of compounds was added at 200 μl/well. The dilution method of the compound was as follows: first the compound with the highest concentration of 10 μM was prepared, and then the compound was diluted for 3 times in sequence. […] At the same time, a blank control group was set up, in which only an equal volume of culture medium was added without adding cells. Six replicate wells were set up for each group. The cells were placed in the incubator for further culture.
(§19) (4) After 72 hours, 20 μl of MTT solution (5 mg/ml) sterilized by filtration through a 0.22 m filter membrane was added to each well, and the cells were cultured in an incubator at 37° C. for another 4 hours.
(§20) (6) IC50 of the compounds for different cells was calculated based on the light absorption value of each group. Specifically, the absorbance value under treatment with different concentrations of compounds was first subtracted from the absorbance value of the blank well, and then the absorbance value of the 0 μM group was taken as 100% to calculate the cell survival rate after treatment with different concentrations of compounds. That is, survival rate=((ODexperimental well−ODblank control)/(ODnegative control−ODblank control))×100%. IC50 values were calculated based on the survival rate and concentration of the compound.
For experiment [5], the system named is NCI-H1650 cells. The experiment in a line: Cell viability IC50 (MTT), Gefitinib- and Osimertinib-resistant NCI-H1650 cells. The conditions noted are these: Homo sapiens, NCI-H1650, 72 h, read-out: cell viability IC50.
Protocol: as §15, §16, §17, §18, §19, §20
For experiment [6], the system named is NCI-H446 cells. Briefly: Cell viability IC50 (CCK-8), small cell lung cancer cell line H446. The following applies: Homo sapiens, NCI-H446; H446, CCK-8. Format: cell-based. The procedure: (§13) Small cell lung cancer cell lines DMS114, NCI-H1688, NCI-H82, NCI-H146, and NCI-H446 cells were cultured in RPMI-1640 medium containing 10% fetal bovine serum and 1% penicillin-streptomycin. All the cells were cultured in a constant temperature incubator containing 5% CO2 at 37° C.
(§14) Small cell lung cancer is a highly heterogeneous malignant tumor, and its clinical treatment is mainly based on traditional chemotherapy (mainly platinum medicaments and etoposide). In order to study the anti-tumor activity of the compounds of the present disclosure in small cell lung cancer, the CCK-8 method was used to investigate the cell viability IC50 of compound 8 for five small cell lung cancer cell lines.

Experiment [7] has as its system DMS114 cells. The experiment in a line: Cell viability IC50 (CCK-8), small cell lung cancer cell line DMS114. Format: cell-based. The following applies: Homo sapiens, DMS-114; DMS114, CCK-8. The procedure:
as §13, §14

The test system of experiment [8] is NCI-H1688 cells. Briefly: Cell viability IC50 (CCK-8), small cell lung cancer cell line H1688. Format: cell-based. The following applies: NCI-H1688; H1688, CCK-8. The procedure:
as §13, §14

Experiment [9] has as its system NCI-H146 cells. Briefly: Cell viability IC50 (CCK-8), small cell lung cancer cell line H146. Format: cell-based. The following applies: Homo sapiens, NCI-H146; H146, CCK-8. The procedure: as §13, §14
For experiment [10], the system named is NCI-H82 cells. Briefly: Cell viability IC50 (CCK-8), small cell lung cancer cell line H82. Format: cell-based. The conditions noted are these: Homo sapiens, NCI-H82; H82, CCK-8. The procedure: as §13, §14
In experiment [11] the test system is PE043 primary cells. The experiment in a line: Cell viability IC50 (CCK-8), primary cells PE043 from lung adenocarcinoma pleural effusion resistant to EGFR-TKI. The following applies: read-out: cell viability IC50.
Experiment [12] deals with PE039 primary cells. Briefly: Cell viability IC50 (CCK-8), primary cells PE039 from small cell lung cancer pleural effusion. Format: cell-based. The conditions noted are these: PE039, CCK-8. How it is done: as §1, §2, §3, §4, §5, §6, §7, §8, §9
(4) The light absorbance value at 450 nm was read using a microplate reader, and the IC50 was calculated according to the absorbance value. The calculation method was the same as above. […]

Setting [13] is: Homo sapiens, NCI-H1975, 72 h, read-out: cell viability IC50.

Structures can show the parent of a compound that is named as a salt. Where two headings read alike, the source gives them in different places.

Usually IC50 stands for the point on the concentration scale where inhibition reaches its midpoint.

Consider `COc1cc2c(Oc3ccc4[nH]c(C)cc4c3F)ccnc2cc1OCC1(N)CC1` [Anlotinib], for which the half-inhibitory concentration (IC50) in experiment [1] stood at 1500 nM; in experiment [2], 2070 nM; in experiment [3], 9440 nM.
For the molecule `CN1CCN(Cc2ccc(Nc3ncc(Cl)c(Nc4ccccc4S(=O)(=O)N(C)C)n3)cn2)CC1` [Compound 2, 2-((5-chloro-2-((6-((4-methylpiperazin-1-yl)methyl)pyridin-3-yl)amino)pyrimidin-4-yl)amino)-N,N-dimethylbenzenesulfonamide], the values for the half-maximal inhibitory concentration (IC50) in experiment [4] (setting [13]) and in experiment [5] were 86.4 nM and 466 nM, respectively.
In the same order, the values of `CN(C)CCN1Cc2ccc(Nc3ncc(Cl)c(Nc4ccccc4S(=O)(=O)N(C)C)n3)cc2C1` [Compound 3, 2-((5-chloro-2-((2-(2-(dimethylamino)ethyl)isodihydroindol-5-yl)amino)pyrimidin-4-yl)amino)-N,N-dimethylbenzenesulfonamide] are 28.3 nM and 37.8 nM.
Taken in the same sequence, the figures for `CN(C)C1CCN(Cc2ccc(Nc3ncc(Cl)c(Nc4ccccc4S(=O)(=O)N(C)C)n3)cc2)C1` (centres unmarked) [Compound 4, 2-((5-chloro-2-((4-((3-(dimethylamino)pyrrolidin-1-yl)methyl)phenyl)amino)pyrimidin-4-yl)amino)-N,N-dimethylbenzenesulfonamide] were 87.7 nM and 163 nM.
Taken in the same sequence, the figures for `CN1CCN(Cc2ccc(Nc3ncc(Cl)c(Nc4ccncc4S(=O)(=O)N(C)C)n3)cc2)CC1` [Compound 6, 4-((5-chloro-2-((4-((4-methylpiperazin-1-yl)methyl)phenyl)amino)pyrimidin-4-yl)amino)-N,N-dimethylpyridine-3-sulfonamide] were 47.7 nM and 250 nM.
In the case of `CN1C2CCC1CN(Cc1ccc(Nc3ncc(Cl)c(Nc4ccccc4S(=O)(=O)N(C)C)n3)cc1)C2` [Compound 9, 2-((5-chloro-2-((4-((8-methyl-3,8-diazabicyclo[3.2.1]octan-3-yl)methyl)phenyl)amino)pyrimidin-4-yl)amino)-N,N-dimethylbenzenesulfonamide], the IC50 was 25.3 nM in [4] (setting [13]) and 170 nM in experiment [5].
Taken in the same sequence, the figures for `C[C@@H]1CN(Cc2ccc(Nc3ncc(Cl)c(Nc4ccccc4S(=O)(=O)N(C)C)n3)cc2)C[C@H](C)N1C` [Compound 10, 2-((5-chloro-2-((4-(((3R,5S)-3,4,5-trimethylpiperazin-1-yl)methyl)phenyl)amino)pyrimidin-4-yl)amino)-N,N-dimethylbenzenesulfonamide] were 21.5 nM and 136 nM.
Taken in the same sequence, the figures for `COCCN1CCc2cc(Nc3ncc(Cl)c(Nc4ccccc4S(=O)(=O)N(C)C)n3)ccc2C1` [Compound 11, 2-((5-chloro-2-((2-(2-methoxyethyl)-1,2,3,4-tetrahydroisoquinolin-6-yl)amino)pyrimidin-4-yl)amino)-N,N-dimethylbenzenesulfonamide formate] were 29.1 nM and 32.5 nM.
Taken in the same sequence, the figures for `CNCCN1CCc2cc(Nc3ncc(Cl)c(Nc4ccccc4S(=O)(=O)N(C)C)n3)ccc2C1` [Compound 12, 2-((5-chloro-2-((2-(2-(methylamino)ethyl)-1,2,3,4-tetrahydroisoquinolin-6-yl)amino)pyrimidin-4-yl)amino)-N,N-dimethylbenzenesulfonamide] were 18.6 nM and 75.2 nM.
Regarding `CN(C)CCN1CCc2cc(Nc3ncc(Cl)c(Nc4ccccc4S(=O)(=O)N(C)C)n3)ccc2C1` [Compound 13, 2-((5-chloro-2-((2-(2-(dimethylamino)ethyl)-1,2,3,4-tetrahydroisoquinolin-6-yl)amino)pyrimidin-4-yl)amino)-N,N-dimethylbenzenesulfonamide formate], the IC50 in experiment [4] (setting [13]) came out at 19.8 nM; in experiment [5], 67.3 nM.
Regarding `CNS(=O)(=O)c1ccccc1Nc1nc(Nc2ccc(CN3C4CCC3CN(C)C4)cc2)ncc1Cl` [Compound 15, 2-((5-chloro-2-((4-((3-methyl-3,8-diazabicyclo[3.2.1]octan-8-yl)methyl)phenyl)amino)pyrimidin-4-yl)amino)-N-methylbenzenesulfonamide], the half-maximal inhibitory concentration (IC50) in [6] worked out at 6.54 nM; in [7], 8.53 nM; in [8], 9.16 nM; in experiment [9] it was 16.2 nM.
The molecule `C[C@@H](Oc1cc(-c2cnn(C3CCNCC3)c2)cnc1N)c1c(Cl)ccc(F)c1Cl` [Crizotinib] came in with a half-inhibitory concentration (IC50) in experiment [1] of 900 nM.
On to `COc1cc([C@@H]2c3cc4c(cc3[C@@H](O[C@@H]3O[C@@H]5CO[C@@H](C)O[C@H]5[C@H](O)[C@H]3O)[C@H]3COC(=O)[C@H]23)OCO4)cc(OC)c1O` [Etoposide], for which the IC50 in [6] was found to be 1060 nM; in [7], 917 nM; in experiment [8], 739 nM; in experiment [1], 770 nM; in experiment [2], 48200 nM; in experiment [9], 434 nM. Also, inhibition in experiment [10] was half-maximal at 545 nM (IC50).
On to `Nc1ccn([C@@H]2O[C@H](CO)[C@@H](O)C2(F)F)c(=O)n1` [Gemcitabine], for which the IC50 in experiment [11] is greater than 834000 nM.
On to `C=CC(=O)Nc1cc(Nc2nccc(-c3cn(C)c4ccccc34)n2)c(OC)cc1N(C)CCN(C)C` [Osimertinib], for which the half-inhibitory concentration (IC50) was […] in experiment [4] (Homo sapiens, NCI-H1975, 72 h, read-out: cell viability IC50, NCI-H1975 cells, 72 hours, MTT); […] in experiment [4] (read-out: cell viability IC50, NCI-H1975 cells, 72 hours, MTT); 3990 nM in experiment [12]; 2740 nM in experiment [1]; 2750 nM in [5]; 3370 nM in experiment [11]. The molecule also displayed a 50% inhibitory concentration (IC50) in [3] of 568 nM.

These data come from US20240360145A1, “PYRIMIDINE-2,4-DIAMINE DERIVATIVES AS WELL AS PREPARATION METHOD THEREFOR AND USE THEREOF” (LISEN THERAPEUTICS, INC., priority 2022, published 2024).
